Drawing on patent publication US20150038435A1, “N-TERMINALLY MODIFIED OLIGOPEPTIDES AND USES THEREOF” (Novo Nordisk A/S, priority 2012, published 2015), this text covers Bioavailability for 1 compound.

This data set is described as follows: Rat PK following intraintestinal injection. Type of data set: in vivo. Particulars: of insulin, 60 nmol/kg intraintestinal, Composition 3: 3% compound, propylene glycol, diglycerol caprylate, Tween 20. The method, then:
Anaesthetized rats were dosed intraintestinally (into jejunum) with reference compounds and N-terminally acylated peptide or oligopeptides of the invention. Plasma concentrations of the employed compounds as well as changes in blood glucose were measured at specified intervals for 4 hours or more post-dosing. Pharmacokinetic parameters were subsequently calculated using WinNonLin Professional (Pharsight Inc., Mountain View, Calif., USA).
The compositions for the intraintestinal injection model were prepared for example according to the following composition (in weight %):
The anesthetized rat was placed on a homeothermic blanket stabilized at 37° C. A 20 cm polyethylene catheter mounted a 1-ml syringe was filled with insulin composition or vehicle. A 4-5 cm midline incision was made in the abdominal wall. […]
Blood samples for the determination of whole blood glucose concentrations were collected in heparinised 10 μl capillary tubes by puncture of the capillary vessels in the tail tip. Blood glucose concentrations were measured after dilution in 500 μl analysis buffer by the glucose oxidase method using a Biosen autoanalyzer (EKF Diagnostic Gmbh, Germany). […]
Samples were collected for determination of the plasma insulin concentration. […] Plasma concentrations of the insulin analogues were measured in a immunoassay. […]

Molecules are shown by their SMILES. Non-standard residues stand in square brackets, D forms with d. Residues, ends and D or L forms follow the SMILES beside them. *: point of attachment. Lauroyl = CCCCCCCCCCCC(=O)*

Regarding `CCCCCCCCCCCC(=O)N[C@H](C)C(=O)N[C@H](C)C(=O)N1CCC[C@@H]1C(=O)N[C@H](Cc1ccccc1)C(=O)O` [Example 1, N-dodecanoyl-DAla-DAla-DPro-DPhe-OH] (Lauroyl-[dA][dA][dP][dF]-OH), the Bioavailability was determined as 4.5 ± 2.7%.
